Laboratory results as given in BindingDB's records for doi:10.7270/Q2TX3CTT (Broad Institute, 2010).

Target: Glycogen synthase kinase-3 beta (Homo sapiens, UniProt P49841)
Experiment: concentration-response blocking of human GSK3B – biochemical, luminescence, cell-free homogeneous, retest, dose response (AID 434954)

Sequence of Glycogen synthase kinase-3 beta (P49841 whole entry): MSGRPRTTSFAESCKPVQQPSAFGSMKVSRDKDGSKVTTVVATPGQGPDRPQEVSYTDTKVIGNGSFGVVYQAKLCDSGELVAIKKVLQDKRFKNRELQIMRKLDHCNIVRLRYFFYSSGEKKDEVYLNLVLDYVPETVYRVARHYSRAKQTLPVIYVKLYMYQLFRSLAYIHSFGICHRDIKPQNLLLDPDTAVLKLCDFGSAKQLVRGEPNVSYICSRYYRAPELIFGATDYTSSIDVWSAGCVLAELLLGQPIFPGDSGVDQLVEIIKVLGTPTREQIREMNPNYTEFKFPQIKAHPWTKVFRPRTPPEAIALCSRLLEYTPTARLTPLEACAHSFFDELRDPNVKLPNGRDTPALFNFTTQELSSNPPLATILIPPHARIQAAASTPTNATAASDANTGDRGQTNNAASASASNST

SMILES	EC50
CC(C)=CCc1c(O)cc2c(c1O)C(=O)CC(c1ccccc1)O2 (stereo unspecified) [MLS000697639]	> 300 µM
CC(=O)c1ccc(Cc2cnc(N)s2)cc1 [1-{4-[(2-amino-1,3-thiazol-5-yl)methyl]phenyl}ethanone]	> 300 µM
c1cncc(-c2nc(NCc3ccc4c(c3)OCO4)c3ccccc3n2)c1 [N-(1,3-benzodioxol-5-ylmethyl)-2-(3-pyridinyl)-4-quinazolinamine]	> 300 µM
O=S(=O)(Nc1cccnc1)c1ccc(C2CCCCC2)cc1 [MLS000075296]	> 300 µM
Cc1ccc(NC(=O)Nc2cc(-c3ccccc3)nn2C)cc1Cl [N-(3-chloro-4-methylphenyl)-N'-(1-methyl-3-phenyl-1H-pyrazol-5-yl)urea]	> 300 µM
CC(C)Nc1nc(-c2cccnc2)nc(-c2ccccc2)c1C#N [4-phenyl-6-(propan-2-ylamino)-2-pyridin-3-yl-pyrimidine-5-carbonitrile]	> 300 µM
Cc1ccc(-n2c(C)c([N+](=O)[O-])c3ccc(O)cc32)cc1 [2-methyl-1-(4-methylphenyl)-3-nitro-indol-6-ol]	> 300 µM
O=C(CN(Cc1ccccc1)C(=O)CCC(=O)Nc1ccccn1)NCc1ccc(F)cc1	58.8 µM
O=S(=O)(/C=C/c1ccccc1)N1CCN(Cc2ccc3c(c2)OCO3)CC1	> 300 µM
CCOC(=O)c1cnc2ccc(F)cc2c1Nc1ccc2c(c1)OCCO2 [SMR000198647]	> 300 µM
Cc1nn(C)c(C)c1S(=O)(=O)N(CC(=O)Nc1nccs1)c1ccc(C(C)C)cc1 [MLS000118397]	> 300 µM
O=c1c2c3c(sc2n2c(S)nnc2n1-c1ccccc1)CCC3 [MLS000779668]	34 µM
Cc1ccc2nc3c(cc2c1)c(NC(=O)C1CCCO1)nn3CC(C)C (stereo unspecified) [SMR000148636]	> 300 µM
Cc1ccc(S(=O)(=O)NN=Cc2cn(-c3ccccc3)nc2-c2ccccc2)cc1 [N-[(1,3-diphenylpyrazol-4-yl)methylideneamino]-4-methylbenzenesulfonamide]	> 300 µM
O=C(Nc1ccccc1Cl)N1CCSc2ccccc21 [N-(2-chlorophenyl)-2,3-dihydro-4H-1,4-benzothiazine-4-carboxamide]	> 300 µM
CC(CC(=O)Nc1ccc(F)c([N+](=O)[O-])c1)c1ccccc1 (stereo unspecified)	> 300 µM
COc1ccc(C=c2sc(=CC(=O)C(C)(C)C)[nH]c2=O)cc1O [2-(3,3-dimethyl-2-oxidanylidene-butylidene)-5-[(4-methoxy-3-oxidanyl-phenyl)methylidene]-1,3-thiazolidin-4-one]	7.2 µM
CS(=O)(=O)Nc1cccc(-c2cn3c(n2)SCC3)c1 [MLS001167062]	> 300 µM
COc1ccc(C2CC(=O)N3CN(c4ccc(C)c(Cl)c4)CSC3=C2C#N)cc1 (stereo unspecified)	> 300 µM
O=c1[nH]nc(SCCS(=O)(=O)c2ccc(F)cc2)n1-c1ccc2c(c1)OCCO2 [SMR000456167]	24.1 µM
CCOC(=O)CSc1ccc2nnc(-c3ccccc3)n2n1 [ethyl 2-[(3-phenyl-[1,2,4]triazolo[4,3-b]pyridazin-6-yl)sulfanyl]acetate]	44.6 µM
CC1(C)CC(=O)C=C(Nc2cc(-c3ccccc3)n[nH]2)C1	12.9 µM
Cc1c(CCOC(=O)CC23CC4CC(CC(C4)C2)C3)sc[n+]1CC(=O)c1ccc(Br)cc1 [SMR000155561]	> 300 µM
CSc1nc(N)c2c3c(sc2n1)CN(C)CC3 [7-methyl-2-methylsulfanyl-6,8-dihydro-5H-pyrido[4,5]thieno[1,2-c]pyrimidin-4-amine]	73.2 µM
CNC(=O)c1ccsc1NC(=O)C1CCN(S(=O)(=O)c2ccc(Cl)s2)CC1 [SMR000812824]	> 300 µM
COc1ccccc1Nc1nc(NCC(C)C)nc(N)c1[N+](=O)[O-] [SMR000436174]	0.888 µM

SMILES	EC50
CCOC(=O)c1ccc(/N=c2\sc(C(=O)OC)cc(=O)n2Cc2ccco2)cc1 [methyl 2-(4-ethoxycarbonylphenyl)imino-3-(furan-2-ylmethyl)-4-oxidanylidene-1,3-thiazine-6-carboxylate]	> 300 µM
COc1cc(CN=Nc2nc(Nc3ccccc3)nc(N3CCCCC3)n2)ccc1OCC(=O)O [SMR000312683]	> 300 µM
NS(=O)(=O)c1ccc(CCNC(=O)CSc2nc3ccsc3c(=O)n2C2CC2)cc1 [MLS000586542]	> 300 µM
O=C(Nc1ccc(O)c2c(=O)cc(-c3ccccc3Cl)oc12)c1ccc(Cl)c(Cl)c1	117 µM
O=C1NC(=O)N(CCc2ccc(F)cc2)C(=O)C1=CNN1CCCCC1 [1-[2-(4-Fluoro-phenyl)-ethyl]-5-[1-(piperidin-1-ylamino)-meth-(Z)-ylidene]-pyrimidine-2,4,6-trione]	> 300 µM
COCCn1c(SCC(=O)NC(=O)NC(C)(C)C)nc2ccccc21	> 300 µM
Nn1c(SCc2cccc(Br)c2)nnc1-c1ccncc1 [3-(3-Bromo-benzylsulfanyl)-5-pyridin-4-yl-[1,2,4]triazol-4-ylamine]	> 300 µM
COc1cccc2cc(C(=O)N(C)C)c(=O)oc12 [8-methoxy-N,N-dimethyl-2-oxo-1-benzopyran-3-carboxamide]	> 300 µM
Cc1[nH]n(-c2ccccc2)c(=O)c1/C=N/NC(=O)COc1ccccc1[N+](=O)[O-] [MLS000592191]	> 300 µM
O=C(NN=Cc1ccccn1)c1cccnc1 [Nicotinic acid [1-pyridin-2-yl-meth-(E)-ylidene]-hydrazide]	> 300 µM
CCC(=O)c1c(CC)c2n3c1CC[C@H]3CCC2 [SMR000469597]	> 300 µM
O=C(NC(=S)Nc1cccc2c(O)cccc12)c1ccco1 [N-[(5-hydroxynaphthalen-1-yl)carbamothioyl]furan-2-carboxamide]	83.9 µM
COc1cc(C=Nn2c(C3CCCCC3)n[nH]c2=S)cc(Br)c1O [MLS001164684]	4.17 µM
Cc1ccc(S(=O)(=O)NC2=NC(=O)/C(=C/c3ccccc3)S2)cc1 [4-methyl-N-[(5Z)-4-oxo-5-(phenylmethylene)-2-thiazolyl]benzenesulfonamide]	> 300 µM
Fc1cccc(CN=Nc2ncnc3nc[nH]c23)c1	11.9 µM
COc1ccc(Nc2nc(N)c([N+](=O)[O-])c(N3CCOCC3)n2)cc1 [SMR000434818]	13.8 µM
CCOc1cc(C2Nc3ccccc3N=C3CC(C)(C)CC(=O)C32)ccc1O (stereo unspecified) [6-(3-ethoxy-4-hydroxyphenyl)-9,9-dimethyl-6,8,10,11-tetrahydro-5H-benzo[b][1,4]benzodiazepin-7-one]	> 300 µM
COc1ccc(NC(=S)Nc2cccc(Cl)c2Cl)cc1OC	> 300 µM
COC(=O)c1ccc(CSc2ccc3nnc(-c4ccc(F)cc4)n3n2)o1 [5-[[[3-(4-fluorophenyl)-[1,2,4]triazolo[4,3-b]pyridazin-6-yl]thio]methyl]-2-furancarboxylic acid methyl ester]	4.59 µM
Cc1ccc(N2CC(C(=O)NCCCn3ccnc3)CC2=O)cc1 (stereo unspecified) [MLS000069041]	> 300 µM
CCCNC(=O)c1ccc(SCC(=O)N(CC)CC)c([N+](=O)[O-])c1	> 300 µM
Clc1cccc(CNc2nc(-c3cccnc3)nc3ccccc23)c1 [N-[(3-chlorophenyl)methyl]-2-(3-pyridinyl)-4-quinazolinamine]	> 300 µM
CN(C)C(CNC(=O)c1ccc2ccccc2c1)c1ccco1 (stereo unspecified) [SMR000377096]	> 300 µM
Cc1ccc(C(=O)O/N=C(\N)c2ccccn2)c(Cl)c1 [MLS001206211]	26.2 µM
Cc1nc(Nc2ccc(S(N)(=O)=O)cc2)sc1C(=O)Nc1ccccc1 [4-methyl-N-phenyl-2-(4-sulfamoylanilino)-5-thiazolecarboxamide]	> 300 µM
